Measured values published in patent publication US9255295B2, “Method for evaluating the sensitizing potential of a test compound” (IMMUNOSEARCH, priority 2010, dated 2016).

Tested on: genes specific for sensitization (BRAK, CTSS, DAPK2, FABP4, HSP27, IL18, HSP90, IL1R2, TPSAB1, CXCR1, DEFB1, DHFR, EHF, IVL, KRT4, MELANA, NGAL, PDZK1IP1, PI3 …)
Assay: Expression of the other (non-ARE) sensitization-specific genes in EPISKIN reconstructed skin (quantitative RT-PCR)
Type: cell-based, human

Oc1ccc(O)cc1 [Hydroquinone]
BRAK expression compared to control (0.1%): 0.7 | BRAK grade (NUMBER OF GENES) (0.1%): 0 (if this expression is lower, the grade is 0) | CTSS expression compared to control (0.1%): 0.7 | CTSS grade (NUMBER OF GENES) (0.1%): 0 (if this expression is lower, the grade is 0) | CXCR1 expression compared to control (0.1%): 2.9 | CXCR1 grade (NUMBER OF GENES) (0.1%): 1 (If the expression is greater than 1.3 compared to the control, a grade of 11s given) | DAPK2 expression compared to control (0.1%): 1.1 | DAPK2 grade (NUMBER OF GENES) (0.1%): 0 (if this expression is lower, the grade is 0) | DEFB1 expression compared to control (0.1%): 1.7 | DEFB1 grade (NUMBER OF GENES) (0.1%): 1 (If the expression is greater than 1.3 compared to the control, a grade of 11s given) | DHFR expression compared to control (0.1%): 0.4 | DHFR grade (NUMBER OF GENES) (0.1%): 0 (if this expression is lower, the grade is 0) | EHF expression compared to control (0.1%): 1.2 | EHF grade (NUMBER OF GENES) (0.1%): 0 (if this expression is lower, the grade is 0) | FABP4 expression compared to control (0.1%): 1.1 | FABP4 grade (NUMBER OF GENES) (0.1%): 0 (if this expression is lower, the grade is 0) | HSP27 expression compared to control (0.1%): 0.8 | HSP27 grade (NUMBER OF GENES) (0.1%): 0 (if this expression is lower, the grade is 0) | HSP90 expression compared to control (0.1%): 1.3 | HSP90 grade (NUMBER OF GENES) (0.1%): 0 (if this expression is lower, the grade is 0) | IL18 expression compared to control (0.1%): 0.8 | IL18 grade (NUMBER OF GENES) (0.1%): 0 (if this expression is lower, the grade is 0) | IVL expression compared to control (0.1%): 1.6 | IVL grade (NUMBER OF GENES) (0.1%): 1 (If the expression is greater than 1.3 compared to the control, a grade of 11s given) | KRT4 expression compared to control (0.1%): 2.0 | KRT4 grade (NUMBER OF GENES) (0.1%): 1 (If the expression is greater than 1.3 compared to the control, a grade of 11s given) | MELANA expression compared to control (0.1%): 0.7 | MELANA grade (NUMBER OF GENES) (0.1%): 0 (if this expression is lower, the grade is 0) | NGAL expression compared to control (0.1%): 1.5 | NGAL grade (NUMBER OF GENES) (0.1%): 1 (If the expression is greater than 1.3 compared to the control, a grade of 11s given) | P13 expression compared to control (0.1%): 1.1 | P13 grade (NUMBER OF GENES) (0.1%): 0 (if this expression is lower, the grade is 0) | PDZK1iP1 expression compared to control (0.1%): 1.2 | PDZK1iP1 grade (NUMBER OF GENES) (0.1%): 0 (if this expression is lower, the grade is 0) | SENS >1.3 (NUMBER OF GENES) (0.1%): 2 | SERPINB3 expression compared to control (0.1%): 1.1 | SERPINB3 grade (NUMBER OF GENES) (0.1%): 0 (if this expression is lower, the grade is 0) | TOTAL SENS (NUMBER OF GENES) (0.1%): 5 | BRAK expression compared to control (1%): 0.8 | BRAK grade (NUMBER OF GENES) (1%): 0 (if this expression is lower, the grade is 0) | CTSS expression compared to control (1%): 1.2 | CTSS grade (NUMBER OF GENES) (1%): 0 (if this expression is lower, the grade is 0) | CXCR1 expression compared to control (1%): 2.8 | CXCR1 grade (NUMBER OF GENES) (1%): 1 (If the expression is greater than 1.3 compared to the control, a grade of 11s given) | DAPK2 expression compared to control (1%): 1.2 | DAPK2 grade (NUMBER OF GENES) (1%): 0 (if this expression is lower, the grade is 0) | DEFB1 expression compared to control (1%): 1.1 | DEFB1 grade (NUMBER OF GENES) (1%): 0 (if this expression is lower, the grade is 0) | DHFR expression compared to control (1%): 0.8 | DHFR grade (NUMBER OF GENES) (1%): 0 (if this expression is lower, the grade is 0) | EHF expression compared to control (1%): 1.1 | EHF grade (NUMBER OF GENES) (1%): 0 (if this expression is lower, the grade is 0) | FABP4 expression compared to control (1%): 1.1 | FABP4 grade (NUMBER OF GENES) (1%): 0 (if this expression is lower, the grade is 0) | HSP27 expression compared to control (1%): 0.9 | HSP27 grade (NUMBER OF GENES) (1%): 0 (if this expression is lower, the grade is 0) | HSP90 expression compared to control (1%): 1.1 | HSP90 grade (NUMBER OF GENES) (1%): 0 (if this expression is lower, the grade is 0) | IL18 expression compared to control (1%): 0.8 | IL18 grade (NUMBER OF GENES) (1%): 0 (if this expression is lower, the grade is 0) | IVL expression compared to control (1%): 1.5 | IVL grade (NUMBER OF GENES) (1%): 1 (If the expression is greater than 1.3 compared to the control, a grade of 11s given) | KRT4 expression compared to control (1%): 1.5 | KRT4 grade (NUMBER OF GENES) (1%): 1 (If the expression is greater than 1.3 compared to the control, a grade of 11s given) | MELANA expression compared to control (1%): 0.7 | MELANA grade (NUMBER OF GENES) (1%): 0 (if this expression is lower, the grade is 0) | NGAL expression compared to control (1%): 1.7 | NGAL grade (NUMBER OF GENES) (1%): 1 (If the expression is greater than 1.3 compared to the control, a grade of 11s given) | P13 expression compared to control (1%): 1.2 | P13 grade (NUMBER OF GENES) (1%): 0 (if this expression is lower, the grade is 0) | PDZK1iP1 expression compared to control (1%): 1.0 | PDZK1iP1 grade (NUMBER OF GENES) (1%): 0 (if this expression is lower, the grade is 0) | SENS >1.3 (NUMBER OF GENES) (1%): 5 | SERPINB3 expression compared to control (1%): 1.0 | SERPINB3 grade (NUMBER OF GENES) (1%): 0 (if this expression is lower, the grade is 0) | TOTAL SENS (NUMBER OF GENES) (1%): 5 | BRAK expression compared to control (10%): 0.8 | BRAK grade (NUMBER OF GENES) (10%): 0 (if this expression is lower, the grade is 0)
